According to patent US12378248B2 (The United States of America, as represented by the …, priority 2018, dated 2025):
Changes are numbered by the printed parent chain. Read-outs that look alike come from different tables or passages of the source.

What was measured:
hA1AR = target: T1, hA1AR (Homo sapiens, UniProt P30542); test: Radioligand binding in membranes of CHO cells expressing hA1AR, [3H]N6-R-phenylisopropyladenosine; conditions: (h); Ki; read-out: A1AR % inhibition or Ki
T1 construct: expressed in transfected cells; host or cells: CHO
T1 sequence (P30542 1-326): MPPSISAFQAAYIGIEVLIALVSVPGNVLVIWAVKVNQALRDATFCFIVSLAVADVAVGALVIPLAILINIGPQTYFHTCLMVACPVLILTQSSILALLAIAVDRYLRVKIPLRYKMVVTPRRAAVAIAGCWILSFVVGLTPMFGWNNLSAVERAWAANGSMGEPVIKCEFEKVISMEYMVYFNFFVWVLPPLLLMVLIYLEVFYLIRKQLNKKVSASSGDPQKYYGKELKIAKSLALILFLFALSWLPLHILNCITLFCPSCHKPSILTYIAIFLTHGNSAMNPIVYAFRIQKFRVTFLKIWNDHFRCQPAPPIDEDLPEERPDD

hA3AR = target: T2, hA3AR (Homo sapiens, UniProt P0DMS8); test: Radioligand binding in membranes of CHO cells expressing hA3AR
T2 construct: expressed in transfected cells; host or cells: CHO
T2 sequence (P0DMS8 1-318): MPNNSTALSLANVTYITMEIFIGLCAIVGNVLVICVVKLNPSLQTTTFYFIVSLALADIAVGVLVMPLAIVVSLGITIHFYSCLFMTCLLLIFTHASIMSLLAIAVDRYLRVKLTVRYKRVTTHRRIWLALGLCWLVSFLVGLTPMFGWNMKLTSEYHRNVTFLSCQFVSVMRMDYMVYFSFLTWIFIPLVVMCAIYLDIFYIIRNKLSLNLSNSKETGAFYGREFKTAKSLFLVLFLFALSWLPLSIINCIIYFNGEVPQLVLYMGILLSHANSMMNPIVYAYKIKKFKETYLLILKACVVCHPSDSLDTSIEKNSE

hA2AAR = target: T3, hA2AAR (Homo sapiens, UniProt P29274); test: Radioligand binding in membranes of HEK293 cells expressing hA2AAR; conditions: read-out: A2AAR % inhibition; for Ki: (h), values without % sign (Ki)
T3 construct: expressed in transfected cells; host or cells: HEK293
T3 sequence (P29274 whole entry): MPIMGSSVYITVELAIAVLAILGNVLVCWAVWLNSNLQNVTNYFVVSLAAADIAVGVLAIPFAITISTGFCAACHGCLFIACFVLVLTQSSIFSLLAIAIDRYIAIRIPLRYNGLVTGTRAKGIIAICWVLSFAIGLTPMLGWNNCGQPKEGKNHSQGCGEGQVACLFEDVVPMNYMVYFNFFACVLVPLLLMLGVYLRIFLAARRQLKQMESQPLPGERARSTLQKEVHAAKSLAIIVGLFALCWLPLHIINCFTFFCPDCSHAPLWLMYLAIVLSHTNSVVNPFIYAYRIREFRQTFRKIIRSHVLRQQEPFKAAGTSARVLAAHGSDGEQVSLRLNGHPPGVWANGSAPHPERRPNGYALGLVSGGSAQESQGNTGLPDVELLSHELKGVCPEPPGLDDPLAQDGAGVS

rA2AAR = rA2AAR (Rattus norvegicus, UniProt P30543); test: Adenosine receptor binding, rA2AAR; conditions: (r); values without % sign (Ki); read-out: A2AAR % inhibition (converted)
rA2AAR, sequence (P30543 whole entry): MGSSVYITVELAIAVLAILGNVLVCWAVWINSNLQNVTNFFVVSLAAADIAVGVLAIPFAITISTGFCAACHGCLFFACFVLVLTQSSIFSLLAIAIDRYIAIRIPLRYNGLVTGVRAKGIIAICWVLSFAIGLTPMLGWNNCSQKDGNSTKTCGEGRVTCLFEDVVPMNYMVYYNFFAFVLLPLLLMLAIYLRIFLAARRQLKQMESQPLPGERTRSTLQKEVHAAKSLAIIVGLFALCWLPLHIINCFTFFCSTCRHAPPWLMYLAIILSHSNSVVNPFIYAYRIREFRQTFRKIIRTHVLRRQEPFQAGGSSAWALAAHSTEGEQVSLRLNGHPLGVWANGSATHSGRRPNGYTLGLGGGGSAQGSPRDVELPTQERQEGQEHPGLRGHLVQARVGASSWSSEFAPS

histamine receptor H1 = histamine receptor H1 (Homo sapiens, UniProt P35367); test: Off-target interaction determined by the PDSP; type: binding; conditions: read-out: Off-target, receptor (h, unless noted) (Ki, μM): H1
histamine receptor H1, sequence (P35367 whole entry): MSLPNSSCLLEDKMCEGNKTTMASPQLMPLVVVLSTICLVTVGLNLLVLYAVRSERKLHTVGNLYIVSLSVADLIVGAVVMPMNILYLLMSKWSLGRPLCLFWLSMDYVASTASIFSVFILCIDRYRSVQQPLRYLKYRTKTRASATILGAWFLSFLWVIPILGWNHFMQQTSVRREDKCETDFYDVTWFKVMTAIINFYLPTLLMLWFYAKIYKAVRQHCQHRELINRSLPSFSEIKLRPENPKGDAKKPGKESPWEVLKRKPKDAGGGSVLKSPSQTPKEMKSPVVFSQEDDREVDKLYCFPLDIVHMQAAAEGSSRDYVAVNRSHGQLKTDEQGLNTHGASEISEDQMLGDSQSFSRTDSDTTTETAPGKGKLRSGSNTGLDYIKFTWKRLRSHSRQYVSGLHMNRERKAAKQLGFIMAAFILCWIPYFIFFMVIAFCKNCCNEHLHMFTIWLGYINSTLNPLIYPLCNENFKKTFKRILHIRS

sigma receptor σ2 = sigma receptor σ2 (UniProt Q5BJF2); test: Off-target interaction determined by the PDSP; type: binding, human; conditions: read-out: Off-target, receptor (h, unless noted) (Ki, μM): σ2
wild-type C57BL/6J mice [1] = test: Locomotor activity by telemetry after ip dosing; type: in vivo, mouse; conditions: 3 mg/kg ip; average from dosing to 60 min; mean±SD
Description: (§1) Compounds were dosed ip. Tb and activity were measured by telemetry and the averages from dosing to 60 min were calculated. […] Data are for the highest dose used and are mean±SD from 3 to 22 mice/group (usually 5-7). P values are unpaired t-Test vs vehicle-treated controls assayed simultaneously. Vehicle data are mean±SD from all (n=83) vehicle treated mice.

serotonin receptor 5HT2C = target: T4, serotonin receptor 5HT2C (Homo sapiens, UniProt P28335); test: Off-target interaction determined by the PDSP; type: binding; conditions: read-out: Off-target, receptor (h, unless noted) (Ki, μM): 5HT2C
T4 sequence (P28335 33-458): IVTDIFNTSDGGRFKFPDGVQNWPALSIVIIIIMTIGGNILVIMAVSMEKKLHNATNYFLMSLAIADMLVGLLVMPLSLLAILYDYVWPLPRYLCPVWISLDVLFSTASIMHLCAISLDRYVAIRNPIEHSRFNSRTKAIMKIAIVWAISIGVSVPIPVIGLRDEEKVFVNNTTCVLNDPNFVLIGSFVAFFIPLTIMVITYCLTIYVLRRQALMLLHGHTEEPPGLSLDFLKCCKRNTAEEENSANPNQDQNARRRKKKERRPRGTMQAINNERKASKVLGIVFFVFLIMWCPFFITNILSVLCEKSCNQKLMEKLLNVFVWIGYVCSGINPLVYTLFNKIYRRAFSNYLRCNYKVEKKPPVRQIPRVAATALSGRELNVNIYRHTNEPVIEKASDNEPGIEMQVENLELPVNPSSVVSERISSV

[2] = Plasma protein binding at 10 μM; type: in vitro ADME, rat; conditions: unbound percent ± standard deviation
Description: (§2) Plasma protein binding in human plasma, mouse plasma, and rat plasma was determined. Verapamil and warfarin served as positive controls. The results are expressed as unbound percent±standard deviation.

[3] = Plasma protein binding at 10 μM; type: in vitro ADME, human; conditions: unbound percent ± standard deviation
Description: as §2

wild-type C57BL/6J mice [4] = test: Hypothermia (Tb by telemetry) after ip dosing; type: in vivo, mouse; conditions: 3 mg/kg ip; average from dosing to 60 min; mean±SD
Description: as §1

[5] = Plasma protein binding at 10 μM; type: in vitro ADME, mouse; conditions: unbound percent ± standard deviation
Description: as §2

mA1AR [6] = target: T5, mA1AR (Mus musculus, UniProt Q60612); test: Adenosine receptor binding, mA1AR; conditions: for Ki: (m), read-out: A1AR % inhibition or Ki (converted); for Binding selectivity for mA1AR: compared to mA3AR
T5 sequence (Q60612 1-326): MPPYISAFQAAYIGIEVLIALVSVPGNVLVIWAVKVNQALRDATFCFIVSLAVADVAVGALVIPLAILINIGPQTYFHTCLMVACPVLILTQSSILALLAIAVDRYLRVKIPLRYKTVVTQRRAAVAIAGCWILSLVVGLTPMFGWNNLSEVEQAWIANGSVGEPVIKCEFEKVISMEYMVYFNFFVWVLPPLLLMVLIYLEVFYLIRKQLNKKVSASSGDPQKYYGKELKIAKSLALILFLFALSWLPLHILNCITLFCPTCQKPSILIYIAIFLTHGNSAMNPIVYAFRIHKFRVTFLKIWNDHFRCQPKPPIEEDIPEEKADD

sigma receptor σ1 = sigma receptor σ1 (Homo sapiens, UniProt Q99720); test: Off-target interaction determined by the PDSP; type: binding; conditions: read-out: Off-target, receptor (h, unless noted) (Ki, μM): σ1
sigma receptor σ1, sequence (Q99720 whole entry): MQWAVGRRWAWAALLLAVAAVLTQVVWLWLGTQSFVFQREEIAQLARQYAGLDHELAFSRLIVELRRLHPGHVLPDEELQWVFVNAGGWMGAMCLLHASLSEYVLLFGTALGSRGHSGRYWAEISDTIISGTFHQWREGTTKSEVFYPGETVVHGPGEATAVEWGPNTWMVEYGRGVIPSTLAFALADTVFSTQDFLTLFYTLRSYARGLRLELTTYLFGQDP

mA1AR [7] = target: T5, mA1AR; test: Guanine nucleotide ([35S]GTPγS) binding assay; type: biochemical
Description: (§3) cLogP was calculated using ChemDraw Professional, v. 16.0. Binding selectivity for mA1Ar is expressed in terms of fold, compared to mA3AR (Data from Table 1).

mA3AR [8] = target: T6, mA3AR (Mus musculus, UniProt Q61618); test: Guanine nucleotide ([35S]GTPγS) binding assay; type: biochemical; conditions: effect of 10 μM test compound as % of 10 μM 16
T6 sequence (Q61618 1-319): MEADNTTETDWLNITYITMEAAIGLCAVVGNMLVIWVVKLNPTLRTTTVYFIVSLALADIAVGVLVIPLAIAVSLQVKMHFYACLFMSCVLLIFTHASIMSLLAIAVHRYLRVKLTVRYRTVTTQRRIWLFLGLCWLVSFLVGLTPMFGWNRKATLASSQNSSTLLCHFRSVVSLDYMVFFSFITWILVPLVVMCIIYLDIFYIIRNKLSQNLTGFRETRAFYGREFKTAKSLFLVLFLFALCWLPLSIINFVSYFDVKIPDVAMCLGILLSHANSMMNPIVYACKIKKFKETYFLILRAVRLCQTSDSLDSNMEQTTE
Description: as §3

mA3AR [9] = target: T6, mA3AR; test: Adenosine receptor binding, mA3AR; conditions: (m); Ki; read-out: A3AR % inhibition or Ki (converted)
serotonin receptor 5HT2B = serotonin receptor 5HT2B (Homo sapiens, UniProt P41595); test: Off-target interaction determined by the PDSP; type: binding; conditions: read-out: Off-target, receptor (h, unless noted) (Ki, μM): 5HT2B
serotonin receptor 5HT2B, sequence (P41595 whole entry): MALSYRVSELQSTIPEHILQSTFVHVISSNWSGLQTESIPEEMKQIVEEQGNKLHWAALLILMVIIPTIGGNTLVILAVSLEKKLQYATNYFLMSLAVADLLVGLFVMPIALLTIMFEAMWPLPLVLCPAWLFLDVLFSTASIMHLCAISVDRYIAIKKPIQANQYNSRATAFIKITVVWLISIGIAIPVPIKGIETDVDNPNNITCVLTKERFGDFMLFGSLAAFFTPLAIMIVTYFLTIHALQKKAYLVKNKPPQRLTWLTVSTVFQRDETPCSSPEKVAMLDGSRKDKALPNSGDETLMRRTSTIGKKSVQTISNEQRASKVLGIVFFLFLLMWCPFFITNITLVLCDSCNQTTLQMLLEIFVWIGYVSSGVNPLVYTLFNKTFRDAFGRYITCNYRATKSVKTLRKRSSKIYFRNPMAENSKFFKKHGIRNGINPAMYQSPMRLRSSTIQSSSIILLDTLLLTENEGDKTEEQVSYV

[10] = target: rat brain benzodiazepine receptors (BZP); test: Off-target interaction determined by the PDSP; type: binding; conditions: read-out: Off-target, receptor (h, unless noted) (Ki, μM): BZP (r)
[11] = Stability in simulated gastric fluid; type: physicochemical; conditions: pH 1.60, 37° C., after 120 min
mice = test: Tail suspension test, immobility time; type: in vivo, mouse; conditions: 0.3 mg/kg i.p., 1 hour after administration, 6 min suspension
Description: 1 hour after administration of compounds, the mice were individually suspended by their tails for 6 minutes, and the average amount of time the mice were immobile was determined. […]

rA1AR = target: T7, rA1AR (Rattus norvegicus, UniProt P25099); test: Adenosine receptor binding, rA1AR; conditions: (r), read-out: A1AR % inhibition or Ki (converted)
T7 sequence (P25099 1-326): T5 sequence (Q60612 1-326) with E151V, A155D, I157R, E316D, I319L, D325E

rA3AR = rA3AR (Rattus norvegicus, UniProt P28647); test: Adenosine receptor binding, rA3AR; conditions: (r), read-out: A3AR % inhibition or Ki (converted)
rA3AR, sequence (P28647 whole entry): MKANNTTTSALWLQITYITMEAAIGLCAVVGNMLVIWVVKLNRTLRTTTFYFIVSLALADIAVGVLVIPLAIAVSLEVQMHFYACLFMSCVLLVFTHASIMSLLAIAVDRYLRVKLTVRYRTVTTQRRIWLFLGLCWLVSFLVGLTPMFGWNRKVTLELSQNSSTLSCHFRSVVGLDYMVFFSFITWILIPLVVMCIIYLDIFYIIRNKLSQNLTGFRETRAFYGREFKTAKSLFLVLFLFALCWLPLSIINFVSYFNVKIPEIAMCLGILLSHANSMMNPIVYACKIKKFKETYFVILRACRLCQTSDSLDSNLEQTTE

[12] = target: dopamine transporter (DAT) (Homo sapiens, UniProt Q01959); test: Off-target interaction determined by the PDSP; type: binding; conditions: read-out: Off-target, receptor (h, unless noted) (Ki, μM): DAT
dopamine transporter (DAT), sequence (Q01959 whole entry): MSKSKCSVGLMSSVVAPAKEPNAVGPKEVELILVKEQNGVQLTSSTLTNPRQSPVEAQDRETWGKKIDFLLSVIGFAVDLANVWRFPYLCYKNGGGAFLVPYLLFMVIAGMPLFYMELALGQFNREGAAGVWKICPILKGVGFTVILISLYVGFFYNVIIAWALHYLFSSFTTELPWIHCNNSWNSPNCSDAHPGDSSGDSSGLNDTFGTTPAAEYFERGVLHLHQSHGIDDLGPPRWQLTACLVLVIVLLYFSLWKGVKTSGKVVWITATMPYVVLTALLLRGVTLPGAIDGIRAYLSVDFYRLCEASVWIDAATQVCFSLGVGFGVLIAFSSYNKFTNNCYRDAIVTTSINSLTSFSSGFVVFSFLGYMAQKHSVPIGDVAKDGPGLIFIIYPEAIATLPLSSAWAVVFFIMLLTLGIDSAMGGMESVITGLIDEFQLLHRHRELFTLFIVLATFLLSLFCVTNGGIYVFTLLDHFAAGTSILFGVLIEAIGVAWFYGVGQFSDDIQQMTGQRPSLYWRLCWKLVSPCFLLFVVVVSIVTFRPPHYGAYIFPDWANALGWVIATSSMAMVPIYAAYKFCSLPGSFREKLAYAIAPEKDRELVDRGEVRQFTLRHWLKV

[13] = target: norepinephrine transporter (NET) (Homo sapiens, UniProt P23975); test: Off-target interaction determined by the PDSP; type: binding; conditions: read-out: Off-target, receptor (h, unless noted) (Ki, μM): NET
norepinephrine transporter (NET), sequence (P23975 whole entry): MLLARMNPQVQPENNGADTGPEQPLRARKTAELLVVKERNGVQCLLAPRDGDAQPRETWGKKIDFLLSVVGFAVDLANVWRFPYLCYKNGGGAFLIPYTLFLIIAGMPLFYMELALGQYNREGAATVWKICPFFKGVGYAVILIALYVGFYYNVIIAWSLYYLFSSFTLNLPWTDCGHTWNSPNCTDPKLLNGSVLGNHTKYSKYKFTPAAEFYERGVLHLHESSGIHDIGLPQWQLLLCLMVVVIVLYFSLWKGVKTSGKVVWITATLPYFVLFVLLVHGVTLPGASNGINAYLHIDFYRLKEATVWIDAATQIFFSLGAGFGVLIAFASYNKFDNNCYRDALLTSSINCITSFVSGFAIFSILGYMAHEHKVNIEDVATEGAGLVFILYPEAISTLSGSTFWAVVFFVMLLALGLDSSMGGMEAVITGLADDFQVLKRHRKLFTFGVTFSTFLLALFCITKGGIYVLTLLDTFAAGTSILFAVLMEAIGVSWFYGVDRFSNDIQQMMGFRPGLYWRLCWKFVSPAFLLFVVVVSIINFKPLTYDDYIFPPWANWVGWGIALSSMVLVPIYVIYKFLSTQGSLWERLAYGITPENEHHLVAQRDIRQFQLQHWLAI

Row | SMILES | Ki (hA1AR) [nM] | Ki (hA3AR) [nM] | Ki (hA2AAR) [nM] | Ki (rA2AAR) [nM] | Ki (sigma receptor σ2) [µM] | Activity (counts) (wild-type C57BL/6J mice [1]) | rat, % free [2] [%] | human, % free [3] [%] | Tb (° C.) (wild-type C57BL/6J mice [4]) [°C] | mouse, % free [5] [%] | Ki (mA1AR [6]) [nM] | Binding selectivity for mA1AR (mA1AR [6]) | Emax at 10 µM (mA1AR [7]) [%] | Emax at 10 µM (mA3AR [8]) [%] | Ki (mA3AR [9]) [nM] | further results
1 | OC[C@H]1O[C@@H](n2cnc3c(NC(C4CC4)C4CC4)ncnc32)[C@H](O)[C@@H]1O [Compound 8] | 0.85 ± 0.27 | 41.3 ± 5.3 | 1470 ± 380 | 1370 |  |  |  |  |  |  |  |  |  |  |  | 
2 | Nc1ncnc2c1ncn2[C@@H]1O[C@H](C(=O)NC2CC2)[C@@H](O)[C@H]1O [Compound 17, reference compound] | 1.9 |  | 50 ± 10 |  | 4.35 |  |  |  |  |  |  |  |  |  |  | Ki (hA3AR; (h), Ki, read-out: A3AR % inhibition or Ki): 180 ± 50 nM; Ki (histamine receptor H1): 7.88 µM
3 | OC[C@@]12C[C@@H]1[C@@H](n1cnc3c(NC(C4CCC4)C4CCC4)ncnc31)[C@H](O)[C@@H]2O [Compound 24, (1R,2R,3S,4R,5S)-4-(6-((Dicyclobutylmethyl)amino)-9H-purin-9-yl)-1-(hydroxymethyl)bicyclo[3.1.0]hexane-2,3-diol] | 22.7 ± 3 |  |  |  | 0.753 | 18.1 ± 6.8 | 17.8 ± 1.2 | 14.6 ± 1.3 | 36.2 ± 0.4 | 27.5 ± 1.7 | 0.53 | (1730) fold | 97 ± 11 | 92 ± 3 | 918 | Ki (serotonin receptor 5HT2C): 1.32 µM; inhibition at 10 µM (hA3AR; read-out: A3AR % inhibition or Ki): 51 ± 6%; Ki (sigma receptor σ1): 1.79 µM; Ki (serotonin receptor 5HT2B): 0.214 µM; inhibition at 10 µM (hA2AAR): 34 ± 1%; Ki [10]: 4.08 µM
4 | OC[C@H]1O[C@@H](n2cnc3c(NC(C4CCC4)C4CCC4)nc(Cl)nc32)[C@H](O)C1O (stereo in doubt) [Compound 12, (2R,3R,4R,5R)-2-(2-Chloro-6-((dicyclobutylmethyl)amino)-9H-purin-9-yl)-5-(hydroxymethyl)tetrahydrofuran-3,4-diol] |  |  |  |  |  | 13.5 ± 3.5 | 4.64 ± 0.06 | 5.81 ± 0.39 | 35.5 ± 0.8 | 4.74 ± 0.67 |  | (1000) fold | 90 ± 19 | 63 ± 5 |  | initial amount present in simulated gastric fluid [11]: 100%; average immobility time relative to mice treated with 10 mg/kg of fluoxetine (mice): approximately ⅔; average immobility time relative to the control group of mice (mice): approximately ½
5 | O[C@@H]1[C@H](O)[C@@H](CCl)O[C@H]1n1cnc2c(NC3CC4CCC3C4)ncnc21 (some centres unmarked) [Compound 3, reference compound] |  | 915 ± 299 | > 10000 | 477 |  |  |  |  |  |  | 0.14 |  |  |  | 424 | Ki (rA1AR): 0.34 nM; Ki (rA3AR): 282 nM
6 | OC[C@H]1O[C@@H](n2cnc3c(NC(C4CCC4)C4CCC4)ncnc32)[C@H](O)[C@@H]1O [Compound 9, (2R,3R,4R,5R)-2-(6-((Dicyclobutylmethyl)amino)-9H-purin-9-yl)-5-(hydroxymethyl)tetrahydrofuran-3,4-diol] | 2.14 ± 0.52 |  | 3550 ± 440 |  |  |  |  |  |  |  |  |  |  |  | 897 | Ki [12]: 1.78 µM; Ki [13]: 4.82 µM
